According to ChEMBL document CHEMBL3259629, “Discovery and optimization of piperidyl-1,2,3-triazole ureas as potent, selective, and in vivo-active inhibitors of α/β-hydrolase domain containing 6 (ABHD6)” (J Med Chem, 2013):

What was measured:
Conditions in all cases: Neuro2a, 3 nM
[1] = biological target: T1, Lysosomal protective protein (Mus musculus) (UniProt P16675)
T1 sequence (whole entry): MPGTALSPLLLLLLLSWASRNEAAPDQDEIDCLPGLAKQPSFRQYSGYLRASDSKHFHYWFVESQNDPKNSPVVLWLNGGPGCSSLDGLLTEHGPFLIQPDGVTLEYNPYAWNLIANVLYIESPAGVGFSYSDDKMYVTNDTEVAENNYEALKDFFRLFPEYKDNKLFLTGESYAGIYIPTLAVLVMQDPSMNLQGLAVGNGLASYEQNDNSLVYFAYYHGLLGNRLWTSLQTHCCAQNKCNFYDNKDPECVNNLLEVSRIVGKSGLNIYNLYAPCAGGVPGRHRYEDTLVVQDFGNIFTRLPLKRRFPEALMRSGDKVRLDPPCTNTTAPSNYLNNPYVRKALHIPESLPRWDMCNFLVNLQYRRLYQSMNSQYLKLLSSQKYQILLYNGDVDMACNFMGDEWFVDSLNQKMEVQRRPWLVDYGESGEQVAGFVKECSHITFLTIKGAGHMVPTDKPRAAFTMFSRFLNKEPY
Description: Inhibition of Ctsa in mouse Neuro2a cells at 3 nM after 4 hrs by ABPP-SILAC assay

[2] = biological target: T2, Neutral cholesterol ester hydrolase 1 (Mus musculus) (UniProt Q8BLF1)
T2 sequence (whole entry): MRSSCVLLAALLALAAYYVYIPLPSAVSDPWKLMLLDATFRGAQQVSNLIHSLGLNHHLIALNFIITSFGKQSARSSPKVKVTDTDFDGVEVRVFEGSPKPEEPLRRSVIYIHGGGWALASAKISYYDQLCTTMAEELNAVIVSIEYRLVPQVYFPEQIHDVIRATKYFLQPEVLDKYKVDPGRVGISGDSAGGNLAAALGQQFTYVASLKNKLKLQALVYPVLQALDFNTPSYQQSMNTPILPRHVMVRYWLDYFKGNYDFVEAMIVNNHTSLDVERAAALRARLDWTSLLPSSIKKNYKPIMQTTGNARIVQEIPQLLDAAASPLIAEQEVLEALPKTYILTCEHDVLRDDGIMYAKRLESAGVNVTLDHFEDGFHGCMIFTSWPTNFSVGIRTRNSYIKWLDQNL
Description: Inhibition of Aadacl1 in mouse Neuro2a cells at 3 nM after 4 hrs by ABPP-SILAC assay

[3] = biological target: T3, S-formylglutathione hydrolase (Mus musculus) (UniProt Q9R0P3)
T3 sequence (whole entry): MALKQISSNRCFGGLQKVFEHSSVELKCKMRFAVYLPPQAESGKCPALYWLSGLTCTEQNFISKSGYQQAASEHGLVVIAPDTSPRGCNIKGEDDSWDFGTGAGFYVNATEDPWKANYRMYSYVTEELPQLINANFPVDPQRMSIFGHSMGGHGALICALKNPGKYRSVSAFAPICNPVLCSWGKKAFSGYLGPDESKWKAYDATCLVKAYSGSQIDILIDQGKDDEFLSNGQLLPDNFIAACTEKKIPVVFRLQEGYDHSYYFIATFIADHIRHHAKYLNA
Description: Inhibition of Esd in mouse Neuro2a cells at 3 nM after 4 hrs by ABPP-SILAC assay

[4] = biological target: T4, sn-1-specific diacylglycerol lipase ABHD11 (Mus musculus) (UniProt Q8K4F5)
T4 sequence (whole entry): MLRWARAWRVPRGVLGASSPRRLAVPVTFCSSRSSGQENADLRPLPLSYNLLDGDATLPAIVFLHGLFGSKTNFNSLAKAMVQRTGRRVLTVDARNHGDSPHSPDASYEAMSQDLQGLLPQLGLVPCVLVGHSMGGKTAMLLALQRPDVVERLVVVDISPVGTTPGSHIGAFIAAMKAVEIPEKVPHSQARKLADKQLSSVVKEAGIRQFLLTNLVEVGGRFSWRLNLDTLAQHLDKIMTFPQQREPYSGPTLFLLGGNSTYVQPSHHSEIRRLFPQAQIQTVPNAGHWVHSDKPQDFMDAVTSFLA
Description: Inhibition of Abhd11 in mouse Neuro2a cells at 3 nM after 4 hrs by ABPP-SILAC assay

[5] = biological target: T5, Protein ABHD13 (Mus musculus) (UniProt Q80UX8)
T5 sequence (whole entry): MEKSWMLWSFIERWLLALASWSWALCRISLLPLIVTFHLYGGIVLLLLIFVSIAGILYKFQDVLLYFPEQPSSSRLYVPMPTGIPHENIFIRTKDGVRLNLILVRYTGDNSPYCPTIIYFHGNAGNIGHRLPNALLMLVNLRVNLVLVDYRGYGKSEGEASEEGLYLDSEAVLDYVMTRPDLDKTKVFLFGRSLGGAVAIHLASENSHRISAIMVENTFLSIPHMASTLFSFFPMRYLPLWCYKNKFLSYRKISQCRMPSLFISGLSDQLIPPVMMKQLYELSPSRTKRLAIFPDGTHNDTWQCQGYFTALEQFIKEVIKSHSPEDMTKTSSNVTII
Description: Inhibition of Abhd13 in mouse Neuro2a cells at 3 nM after 4 hrs by ABPP-SILAC assay

[6] = biological target: T6, Phosphatidylserine lipase ABHD16A (Mus musculus) (UniProt Q9Z1Q2)
T6 sequence (whole entry): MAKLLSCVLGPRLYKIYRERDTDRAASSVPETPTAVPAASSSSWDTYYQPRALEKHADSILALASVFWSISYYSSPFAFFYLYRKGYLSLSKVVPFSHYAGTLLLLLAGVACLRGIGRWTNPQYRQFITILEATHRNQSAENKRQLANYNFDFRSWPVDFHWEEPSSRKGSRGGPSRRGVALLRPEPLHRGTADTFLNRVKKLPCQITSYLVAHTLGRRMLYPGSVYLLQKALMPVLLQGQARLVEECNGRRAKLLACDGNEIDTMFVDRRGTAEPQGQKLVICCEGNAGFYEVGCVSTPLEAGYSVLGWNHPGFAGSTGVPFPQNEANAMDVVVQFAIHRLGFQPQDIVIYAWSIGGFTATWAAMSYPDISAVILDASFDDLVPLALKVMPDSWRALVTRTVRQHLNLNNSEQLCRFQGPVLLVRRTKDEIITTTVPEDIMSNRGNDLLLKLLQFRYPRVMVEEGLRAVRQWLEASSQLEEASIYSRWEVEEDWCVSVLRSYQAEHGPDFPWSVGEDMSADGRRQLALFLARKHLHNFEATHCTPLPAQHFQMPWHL
Description: Inhibition of Bat5 in mouse Neuro2a cells at 3 nM after 4 hrs by ABPP-SILAC assay

[7] = biological target: T7, Protein phosphatase methylesterase 1 (Mus musculus) (UniProt Q8BVQ5)
T7 sequence (whole entry): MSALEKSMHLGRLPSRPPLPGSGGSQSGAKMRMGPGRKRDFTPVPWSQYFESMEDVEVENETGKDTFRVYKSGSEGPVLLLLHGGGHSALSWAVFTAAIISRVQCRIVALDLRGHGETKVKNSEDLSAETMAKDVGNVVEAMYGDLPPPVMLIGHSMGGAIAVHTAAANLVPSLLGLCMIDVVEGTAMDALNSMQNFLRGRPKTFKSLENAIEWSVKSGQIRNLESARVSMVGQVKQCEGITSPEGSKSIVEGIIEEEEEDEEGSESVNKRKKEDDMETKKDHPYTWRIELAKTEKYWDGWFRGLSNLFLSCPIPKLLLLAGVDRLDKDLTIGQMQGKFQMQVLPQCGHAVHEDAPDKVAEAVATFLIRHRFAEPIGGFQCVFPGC
Description: Inhibition of Ppme1 in mouse Neuro2a cells at 3 nM after 4 hrs by ABPP-SILAC assay

Measured: inhibition

O=C(N1CCCCC1c1ccccc1)n1cc(-c2ccc(-c3cccc(CO)c3)cc2)nn1 (racemic)
< 50%: all assays above

O=C(c1cccc(-c2ccc(-c3cn(C(=O)N4CCCCC4c4ccccc4)nn3)cc2)c1)N1CCCCC1 (racemic)
< 50%: all assays above

O=C(O)c1cccc(-c2ccc(-c3cn(C(=O)N4CCCCC4Cc4ccccc4)nn3)cc2)c1 (racemic)
< 50%: all assays above
